The values below come from US20210177952A1, “METHOD AND COMPOSITION FOR STIMULATING IMMUNE RESPONSE” (BeyondSpring Pharmaceuticals, Inc., priority 2018, published 2021).

Series [1] relates to CD4^+ T cells combined with CD14^+ dendritic cells. The series can be described thus: Allogeneic mixed lymphocyte reaction (MLR), IL-2 and IFN-γ by ELISA. Format: cell-based, Human. The procedure:
Human peripheral CD14 positive monocytes were collected from a human donor and, subsequently, differentiated and matured into CD14^+ dendritic cells (DCs). Human CD4 positive T-cells were separately collected from another human donor. The collected CD4^+ T cells were combined with the CD14^+ DCs in a mixed lymphocyte reaction (MLR). In this Example, a tubulin binding agent was added, respectively, in the step of monocyte differentiation, in the step of dendritic cell maturation, and in the step of T-cell activation by combining the CD14^+ DCs with the CD4^+ T cells.
ISOLATION OF HUMAN CD4^+ T CELLS FROM ANOTHER DONOR'S PBMCs: PBMC cells were obtained from another human donor according to (1a)-(1d) above. CD4^+ T-cells were then isolated from these PBMCs according to steps (3a)-(3k) as follows: (3a) The number of the PBMC cells was determined. (3b) The cell suspension was centrifuged at 300×g for 10 min. The supernatant was then completely aspirated. (3c) The cell pellet was re-suspended in 40 μL of FACS buffer per 10^7 total cells. (3d) 10 μL of CD4^+ T Cell Biotin-Antibody Cocktail was added per 10^7 total cells. (3e) The mixture was well mixed and incubated for 5 min in refrigerator (at 2-8° C.). (3f) 30 μL of FACS buffer was added per 10^7 total cells, and 20 μL of CD4^+ T-Cell MicroBead Cocktail was added per 10^7 total cells. (3g) The mixture was well mixed and incubated for 10 min in refrigerator (at 2 to 8° C.). (3h) A column is placed in magnetic field of a suitable MACS Separator. (3i) The column is prepared by rinsing with 3 mL of buffer. (3j) The cell suspension was applied onto the column. The flow-through containing unlabeled cells, representing the enriched CD4^+ T cells, were collected. […]
ALLOGENEIC ACTIVATION OF T CELLS ASSESSED BY MLR ASSAY: Allogeneic Mixed Lymphocyte Reaction (MLR) assays were performed according to steps (4a)-(4d) as follows: (4a) The test article (e.g., plinabulin and other tubulin binding agents) were each diluted in RPMI 1640 medium according to one of Tables 7-9 and, subsequently, added at 50 μL/well in appropriate wells. […]

For series [2] the following is noted: mice; cited from earlier work.

Regarding `CC(C)(C)c1[nH]cnc1/C=c1\[nH]c(=O)/c(=C/c2ccccc2)[nH]c1=O` [Plinabulin, (3Z,6Z)-3-Benzylidene-6-{[5-(2-methyl-2-propanyl)-1H-imidazol-4-yl]methylene}-2,5-piperazinedione], the “IL2 secretion in MLR” value is listed as “decrease in IL2 secretion” in series [1] (CD14^+ monocytes treated at 1 or 3 μM during DC differentiation) and “increase in IL2 secretion” in series [1] (DCs treated at 1 or 3 μM during DC maturation). For the same compound, the “MLR induced IL-2 secretion” value in series [1] (treatment at ≥100 nM began when mature DCs were combined with CD4 T-cells, compared with nivolumab at 2 mg/ml) is recorded as “significant increase in MLR induced IL-2 secretion, greater than that of nivolumab”. Further, the plasma elimination half-life in series [2] is 1.5 to 2 h.
